We go through 19 compounds from PubChem BioAssay AID2812 (Southern Research Specialized Biocontainment Screening …, 2010).

The structures appear in SMILES notation. Active and inactive are the calls of the source. How the calls were made is not given here.

This assay relates to MAGI host cells cytotoxicity, % cell control, 5% serum. Nature of the assay: cytotoxicity in MAGI host cells, dose response, cytotoxicity control for HIV-1 antiviral project, 5% and 10% serum, set 2 (AID 2812).
Setting [1] is: MAGI host cells cytotoxicity, % cell control, 10% serum.

For the compound `CS(=O)(=O)C1=NSC2=NC(=O)/C(=C\c3cccn3-c3ccc(Cl)cc3)C(=N)N21`, the TC50 was > 100 µM (inactive). Moreover, the TC50 under setting [1] was over 100 µM.
Regarding `CCS(=O)(=O)C1=NSC2=NC(=O)/C(=C\c3ccc(OS(=O)(=O)c4ccccc4)cc3)C(=N)N21`, the TC50 was > 100 µM (inactive). The compound also yielded a TC50 under setting [1] of over 100 µM.
For `CC(C)S(=O)(=O)C1=NSC2=NC(=O)/C(=C\c3ccc(-c4cccc(C(=O)O)c4)o3)C(=N)N21` the same measures were > 100 µM (inactive) and over 100 µM.
Take `O=C1NC(=S)N(c2ccc(F)cc2)C(=O)/C1=C/c1ccco1`: the TC50 under setting [1] was over 100 µM.
The same measure, in the same setting: as for `COc1ccc(OC)c(N2C(=O)/C(=C/c3ccco3)C(=O)NC2=S)c1`, the figure is over 100 µM.
`Cc1ccc(-n2cccc2/C=C2/C(=N)N3C(=NC2=O)SN=C3S(C)(=O)=O)cc1Cl`: the TC50 is > 100 µM (inactive). Under setting [1], this compound gave a TC50 of over 100 µM.
The corresponding values for `O=C(O)c1ccccc1C(=O)N(Cc1cccc(Oc2ccc(Cl)cc2)c1)[C@H]1CCCc2ccccc21` are 56.4 µM and over 100 µM.
Consider `Cc1cc(C)cc(-n2cccc2/C=C2/C(=N)N3C(=NC2=O)SN=C3S(C)(=O)=O)c1`, for which the TC50 was 79.5 µM. The compound also showed a TC50 under setting [1] of over 100 µM.
The corresponding values for `Cc1ccc(S(=O)(=O)Oc2ccc(/C=C3/C(=N)N4C(=NC3=O)SN=C4S(C)(=O)=O)cc2)cc1` are > 100 µM (inactive) and over 100 µM.
For `CS(=O)(=O)C1=NSC2=NC(=O)/C(=C\c3ccc(OS(=O)(=O)c4ccccc4)cc3)C(=N)N21` the same measures were > 100 µM (inactive) and over 100 µM.
For `O=C(O)c1cc(NN=Cc2ccc(-c3ccccc3)cc2)ccc1Cl` the same measures were > 100 µM (inactive) and over 100 µM.
With `CC(C)S(=O)(=O)C1=NSC2=NC(=O)/C(=C\c3ccc(-c4ccccc4)o3)C(=N)N21`, the TC50 was 74 µM. The TC50 under setting [1] is over 100 µM.
The corresponding values for `CC1(C)CC(=O)C2=C(C1)c1c(ccc3ccccc13)NC2c1cc([N+](=O)[O-])cc([N+](=O)[O-])c1O` (stereo not given) are 58.6 µM and over 100 µM.
For `COc1cc(C=NNc2ccc(Cl)c(C(=O)O)c2)ccc1OC(=O)c1ccccc1F` the same measures were > 100 µM (inactive) and over 100 µM.
For `COc1cc(C=NNc2ccc(Cl)c(C(=O)O)c2)ccc1OC(=O)c1ccc(F)cc1` the same measures were > 100 µM (inactive) and over 100 µM.
As for `Cc1ccc(-n2c(O)c(C=Nc3ccccc3-c3n[nH]c(=S)[nH]c3=O)c3ccccc3c2=O)c(C)c1`, under setting [1], the TC50 was over 100 µM.
Regarding `COc1ccc(C(=O)Oc2ccc(C=NNc3ccc(Cl)c(C(=O)O)c3)cc2OC)cc1`, the TC50 is > 100 µM (inactive). Also, the TC50 under setting [1] is over 100 µM.
For `O=c1c(=Cc2cc([N+](=O)[O-])cc([N+](=O)[O-])c2O)sc2nc3ccccc3n12` the same measures were > 100 µM (inactive) and over 100 µM.
For the compound `COc1ccccc1NS(=O)(=O)c1cccc(-n2c(O)c(C=Nc3ccccc3C(=O)O)c3ccccc3c2=O)c1`, the TC50 was 93.7 µM. This compound also had a TC50 under setting [1] of over 100 µM.
